Laboratory results reported in US20240415814A1, “PHARMACEUTICAL COMPOSITION COMPRISING 1-(3-CYANO-1-ISOPROPYL-INDOL-5-YL)PYRAZOLE-4-CARBOXYLIC ACID” (LG CHEM, LTD., priority 2021, published 2024).

Columns and labels:
serum uric acid [1] = assay: Phase 2 clinical trial (NCT03934099): serum uric acid concentration in gout patients; type: in vivo, human; conditions: for patients with serum uric acid concentration <4 mg/dL / patients with serum uric acid concentration <5 mg/dL / patients with serum uric acid concentration <6 mg/dL: febuxostat group 40 mg oral
Procedure: A phase 2 clinical trial was conducted to analyze the dosage, TEAEs, and the like when the compound of Formula 1 (1-(3-cyano-1-isopropyl-indol-5-yl)pyrazol-4-carboxylic acid; compound of Example 1) is administered to a gout patient group.
• 1. Written informed consent (signed and dated) provided voluntarily prior to the start of the study. • 2. Male or female aged from 18 to 75 • 3. History or experience of hyperuricemia and gout in accordance with the criteria of the American College of Rheumatology. • 4. Self-reported history of 2 or more gout flare within 12 months prior to screening visit (Visit 1). • 5. Serum uric acid (sUA) levels at Visit 1 of 6.0 mg/dL or more in subjects who were receiving urate lower therapy (ULT) with allopurinol, febuxostat, probenecid, or lesinurad; and sUA levels at Visit 1 of 8.0 mg/dL or more and 12.0 mg/dL or less in subjects who had no history of receiving the ULT or were not receiving the ULT at visit 1. • 6. sUA levels of 8.0 mg/dL or more and 12.0 mg/dL or less at Visit 3. • 7. Body mass index of 42 kg/m^2 or less at screening visit (Visit 1). • 8. Estimated glomerular filtration rate (eGFR) of 60 mL/min/1.73 m^2 or more at screening visit (Visit 1). • 9. Subjects of childbearing potential with a negative pregnancy test result at screening visit (Visit 1). Subjects (female subjects of childbearing potential and male subjects with partners of childbearing potential) consented to use adequate methods of contraception to avoid pregnancy during the study period. • 10. Able to understand the study procedure and relevant risk, and willing to comply with the visit/protocol schedule.
• 1. Presence of secondary hyperuricemia caused by myeloproliferative disorder, organ transplantation, or the like. • 2. Experience of any active acute gout flare within 3 weeks prior to screening visit (Visit 1). • 3. Aspartate aminotransferase or alanine aminotransferase level exceeds 2 times upper limit of normal (ULN) at screening visit (Visit 1). • 4. Creatine kinase level exceeds 2.5 times ULN at screening visit (Visit 1). • 5. Presence of previous hypersensitivity to colchicine. • 6. Patients who have ever prescribed pegloticase within 3 months prior to screening visit (Visit 1). • 7. If a stable dose of drugs (losartan, fibrate, thiazide diuretics, loop diuretics, and acetylsalicylic acid) known to affect sUA levels has not been administered during the past 6 weeks prior to screening visit (Visit 1), acetylsalicylic acid is not allowed to use 325 mg/day or more. • 8. Patients who have ever received systemic corticosteroids for 10 or more consecutive days within 1 month prior to screening visit (Visit 1). • 9. Presence of need or potential availability of systemic immunosuppressive drugs or immunomodulatory therapies (e.g., azathioprine, 6-mercaptopurine, and cyclosporine) • 10. Patients who have received high or moderate doses of cytochrome P450 3A4 inhibitors or P-glycoprotein inhibitors within 14 days prior to screening visit (Visit 1). • 11. History of xanthinuria. • 12. History of rheumatoid arthritis. • 13. Presence of active peptic ulcer disease requiring treatment. • 14. Presence of unstable angina, New York Heart Association class III or IV heart failure, myocardial infarction, stroke, deep vein thrombosis, percutaneous coronary intervention (with or without stent), or coronary artery bypass graft within the past 12 months prior to screening visit (Visit 1); current administration of anticoagulants; or the presence of clinically significant electrocardiogram abnormalities in the investigator's opinion at screening visit (Visit 1). • 15. Presence of uncontrolled hypertension (systolic blood pressure>160 mmHg or diastolic blood pressure>95 mmHg) at screening visit (Visit 1). • 16. History of myositis/myopathy, rhabdomyolysis, Stevens-Johnson syndrome, or toxic epidermal necrolysis. • 17. […]

serum uric acid [2] = conditions: previous results, gout patients; cited from earlier work
[3] = febuxostat 40 mg, mild renal function impairment, 12 weeks
[4] = febuxostat 40 mg, normal renal function, 12 weeks
[5] = febuxostat 40 mg, one patient in moderate renal function impairment group, 12 weeks

Structure (SMILES)	patients adjusted to serum uric acid <5.0 mg/dL (serum uric acid [1]; [3])	patients adjusted to serum uric acid <6.0 mg/dL (serum uric acid [1]; [3])	patients adjusted to serum uric acid <5.0 mg/dL (serum uric acid [1]; [4])	patients adjusted to serum uric acid <6.0 mg/dL (serum uric acid [1]; [4])	adjustment of serum uric acid to <5.0 mg/dL (serum uric acid [1]; [5])	adjustment of serum uric acid to <6.0 mg/dL (serum uric acid [1]; [5])	patients with serum uric acid concentration <4 mg/dL (serum uric acid [1]; 12 weeks)	patients with serum uric acid concentration <5 mg/dL (serum uric acid [1]; 12 weeks)	patients with serum uric acid concentration <6 mg/dL (serum uric acid [1]; 12 weeks)	patients with serum uric acid concentration <4 mg/dL (serum uric acid [1]; 12 weeks, listed as febuxostat)	patients with serum uric acid concentration <5 mg/dL (serum uric acid [1]; 12 weeks, listed as febuxostat)	patients with serum uric acid concentration <6 mg/dL (serum uric acid [1]; 12 weeks, listed as febuxostat)	degree of reduction in serum uric acid (serum uric acid [1]; febuxostat group 40 mg, FIG. 3)	patients in the receiving group with serum uric acid concentration of less than 6 mg/dL (serum uric acid [2])
Cc1nc(-c2ccc(OCC(C)C)c(C#N)c2)sc1C(=O)O [Febuxostat, febuxostat, reference compound]	33%	67%	20%	60%	not adjusted to less than 5.0 mg/dL	not adjusted to less than 6.0 mg/dl	0% (0/13 people)	23% (3/13 people)	54% (7/13 people)	0%	23%	54%	41.4%	–
Oc1ncnc2[nH]ncc12 [allopurinol]	–	–	–	–	–	–	–	–	–	–	–	–	–	about 40%
